How the values were obtained:
[1] = molecular target: P-glycoprotein (Homo sapiens, UniProt P08183); test: in vitro
[2] = Hepatomicrosome stability, rat; conditions: for Remaining percentage after 30 minutes: Rat, 2 μM
Method: 1a) With NADPH: 10 μL of 20 mg/mL of hepatomicrosome and 40 μL of 10 mM of NADPH were added to medium. The final concentrations of hepatomicrosome and NADPH were 0.5 mg/mL and 1 mM, respectively.
1b) Without NADPH: 10 μL of 20 mg/mL hepatomicrosome and 40 μL of ultra-pure H2O were added to medium. The final concentration of hepatomicrosome was 0.5 mg/mL.
3) 3) Aliquots of 50 μL from the reaction solutions at 0 minute and 30 minutes were taken. The reaction solutions were stopped by adding 4 volumes of cold acetonitrile and 4 internal standards (IS internal standard, 100 nM of Alprazolam, 200 nM of caffeine, 200 nM of Labetalol, and 2 μM of Ketoprofen) to stop the reaction solution. The samples were centrifuged at 3,220 g for 40 minutes. Aliquots of 100 μL of the supernatants were mixed with 100 μL of ultra-pure H2O. Then, the mixtures were used for LC-MS/MS analysis. All experiments were performed in duplicate. The test results were as follow.

[3] = system: H460 non-small cell lung cancer; test: Cytotoxicity test of human tumor cell line in vitro (CTG, 72 hours); assay type: cell-based; conditions: Homo sapiens, NCI-H460; H460, 72 hours exposure
Method: IC50 values were obtained by the following methods. The cancer cells were exposed to various concentrations of compounds for 72 hours. Following by washing steps, fresh medium was added to allow the growth of the cancer cells. The cancer cells were stained to obtain cell viability. Then, comparisons were made with the medium-only control.
Specifically, the exponentially growing cells were seeded in 96-well plates at a density of 2×10^3 cells/well, and 100 μL/well. The cells were incubated for 24 hours at 37° C., in 5% CO2, in 95% air, and 100% relative humidity. Next, 99 μL of culture medium was added. The compounds were dissolved in 100% DMSO at 200 times the desired final test concentration. Upon addition of compounds, the compounds were further diluted to 4 times the desired final concentration with a complete medium. Aliquots of 1 μL of compounds at specific concentration were added to the micro-wells containing 199 μL of medium to obtain the final compound concentrations as reported. After the compounds were added, the plates were incubated for an addition 72 hours at 37° C., in 5% CO2, in 95% air, and 100% relative humidity.
The plates to be test containing the cells were equilibrated at room temperature for 30 minutes, and 100 μL of medium per well was discarded. 100 μL of CTG reagent (CelltiterGlo Kit) was added to each well. The plates were placed in a fast-shaker to shake for 2 minutes, and placed at room temperature for 30 minutes in the dark. Chemoluminescence signal values were read with Envision instrument.

Chain of P-glycoprotein (P08183 whole entry): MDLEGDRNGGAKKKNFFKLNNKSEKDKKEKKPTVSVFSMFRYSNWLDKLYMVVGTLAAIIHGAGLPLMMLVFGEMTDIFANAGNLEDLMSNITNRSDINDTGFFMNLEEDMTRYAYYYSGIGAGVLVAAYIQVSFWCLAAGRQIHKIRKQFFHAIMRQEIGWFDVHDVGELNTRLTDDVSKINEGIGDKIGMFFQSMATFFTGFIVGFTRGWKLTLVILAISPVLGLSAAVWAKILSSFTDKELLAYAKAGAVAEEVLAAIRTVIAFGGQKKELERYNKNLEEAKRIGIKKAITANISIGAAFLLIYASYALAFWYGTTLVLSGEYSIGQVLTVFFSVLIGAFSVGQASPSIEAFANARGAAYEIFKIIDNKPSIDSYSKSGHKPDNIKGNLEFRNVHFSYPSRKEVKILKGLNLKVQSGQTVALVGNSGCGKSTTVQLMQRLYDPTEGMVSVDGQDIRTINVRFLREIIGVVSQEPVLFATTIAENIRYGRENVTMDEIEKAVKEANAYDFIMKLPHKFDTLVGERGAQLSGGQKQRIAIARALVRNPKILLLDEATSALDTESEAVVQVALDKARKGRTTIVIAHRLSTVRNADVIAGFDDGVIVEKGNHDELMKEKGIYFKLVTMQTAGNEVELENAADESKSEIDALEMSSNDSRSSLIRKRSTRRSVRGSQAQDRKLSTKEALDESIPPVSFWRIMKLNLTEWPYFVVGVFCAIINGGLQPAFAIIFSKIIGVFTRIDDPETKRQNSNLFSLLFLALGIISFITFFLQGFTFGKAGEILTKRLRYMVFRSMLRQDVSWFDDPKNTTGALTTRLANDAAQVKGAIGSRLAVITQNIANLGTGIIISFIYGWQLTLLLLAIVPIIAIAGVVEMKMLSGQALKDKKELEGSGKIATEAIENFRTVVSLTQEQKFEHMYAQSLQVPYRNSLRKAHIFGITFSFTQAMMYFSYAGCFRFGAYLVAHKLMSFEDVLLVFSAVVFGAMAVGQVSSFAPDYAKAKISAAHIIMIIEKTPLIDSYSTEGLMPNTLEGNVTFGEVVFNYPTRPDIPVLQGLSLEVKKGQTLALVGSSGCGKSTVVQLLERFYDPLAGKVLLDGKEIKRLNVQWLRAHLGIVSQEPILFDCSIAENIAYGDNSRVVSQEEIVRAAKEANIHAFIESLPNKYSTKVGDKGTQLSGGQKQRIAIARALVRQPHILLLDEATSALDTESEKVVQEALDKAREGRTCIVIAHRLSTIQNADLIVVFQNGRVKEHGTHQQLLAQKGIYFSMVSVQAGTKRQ

Question: For `O=[N+]([O-])c1ccc(C(OP(=O)(N2CC2)N2CC2)C(F)(F)F)c2ccccc12` (centres unmarked) [Compound 01], which Papp A→B at 2 h ([1]; dog, MDCK-MDR1) is on record?
Answer: 18.6 ×10⁻⁶ cm/s

Question: And the Papp B→A at 2 h ([1]; dog, MDCK-MDR1)?
Answer: 11.9 ×10⁻⁶ cm/s

Question: And the recovery at 2 h ([1]; dog, MDCK-MDR1, Recovery (%) AP-BL, Verapamil 0 μM)?
Answer: 58.6%

Question: What about the recovery at 2 h ([1]; dog, MDCK-MDR1, Recovery (%) AP-BL, Verapamil 100 μM) of the same compound?
Answer: 63.4%

Question: What about the recovery at 2 h ([1]; dog, MDCK-MDR1, Recovery (%) BL-AP, Verapamil 0 μM) of the same compound?
Answer: 58.6%

Question: What about the recovery at 2 h ([1]; dog, MDCK-MDR1, Recovery (%) BL-AP, Verapamil 100 μM) of the same compound?
Answer: 67.3%

Question: What about the “P-glycoprotein substrate (experimental conclusion)” value ([1]; with vs without Verapamil) of the same compound?
Answer: not P-glycoprotein substrates

Question: What about the “Remaining percentage after 30 minutes” value ([2]; with NADPH) of the same compound?
Answer: 71.05%

Question: What about the “Remaining percentage after 30 minutes” value ([2]; without NADPH) of the same compound?
Answer: 111.15%

Question: And the “Stability in hepatomicrosomes (conclusion)” value ([2]; rat)?
Answer: unstable

Question: What about the IC50 [3] of the same compound?
Answer: 128 nM
